According to patent US20100036088A1, “Selective poly-N-substituted glycine antibiotics” (priority 2008, published 2010):
Square brackets hold non-standard residues; d marks the D form. Peptide text beside a SMILES is read from it. Nspe = C[C@H](NCC(=O)O)c1ccccc1; Nlys = NCCCCNCC(=O)O

Experiments:
[1] = test system: both strains of E. faecalis; format: cell-based; conditions: range over strains
Procedure: The activities of ampetoids tested against BSL2 Gram-positive strains, however, compared very favorably to those of pexiganan.
Broad-spectrum antibacterial assays. MICs of compounds were determined by microdilution procedure in Mueller-Hinton broth (MHB) in accordance with CLSI M7-A6 protocols in a manner similar to that described for the screen antibacterial assays. Inoculated microtiter plates were incubated at 35° C. for 24 hours prior to the result being recorded. Four ATCC strains that were used as standards are recommended by CLSI: Pseudomonas aeruginosa ATCC 27853, Escherichia coli ATCC 25922, Staphylococcus aureus ATCC 29213 and Enterococcus faecalis ATCC 29212. Other strains from the ATCC collection include Proteus vulgaris ATCC 49132, Proteus mirabilis ATCC 35659, Klebsiella pneumoniae ATCC 33495, Enterobacter aerogenes ATCC 35029 and Serratia marcescens ATCC 13880. S. aureus NRS100 (COL) is a well characterized methicillian-resistant S. aureus (MRSA) strain. The strains S. aureus VAN1 and S. aureus VAN2, vancomycin-resistant MRSA strains that were isolated in Michigan and Pennsylvania, were the first vancomycin-resistant strains clinically isolated. S. aureus NRS119 and S. aureus NRS120 are linezolid-resistant isolates from the Network on Antimicrobial Resistance in S. aureus (NARSA) collection. E. faecalis 99 and E. faecium 106 are vancomycin-resistant enterococcal strains.

[2] = test system: A549 lung epithelial cells; assay: MTS assay, metabolic inhibition
Procedure: The biocompatibility of selected oligomers with A549 lung epithelial cells was evaluated using the MTS [3-(4,5-dimethylthiazol-2-yl)-5-(3-carboxymethoxyphenyl)-2-(4-sulfophenyl)-2H-tetrazolium] assay.
MTS Assays. A549 carcinoma-derived lung epithelial cells (ATTC CCL-185) were cultured in Ham's F12K media (ATTC, Manassas, Va.). A peptoid solution plate (100 μL/well) was prepared by serial dilution of aqueous peptoid stocks in media. Peptoid solutions were transferred onto a 96-well plate of day-old cell monolayers containing 100 μL/well media with ˜5000 cells/well. MTS reagent (Promega Corporation, Madison, Wis.) (40 μL/well) was added to each well and the plate was incubated at 37° C. for 3 h, after which absorbance at 490 nm was determined. Percent inhibition was determined as [1−(A−Atest blank)/(Acontrol−Ablank)]×100, where A is the absorbance of the test well and Acontrol the average absorbance of wells with cells exposed to media and MTS (no peptoid). Atest blank (media, MTS, and peptoid) and Ablank (media and MTS) were background absorbances measured in the absence of cells. The average of six replicates are reported, and error bars show one standard deviation.

SMILES	MIC against both strains of E. faecalis [1] [µg/mL]	ID10 relative to that of pexiganan [2] [times]
C[C@@H](c1ccccc1)N(CC(N)=O)C(=O)CN(C(=O)CN(CCCCN)C(=O)CN(C(=O)CN(C(=O)CN(CCCCN)C(=O)CN(C(=O)CN(C(=O)CN(CCCCN)C(=O)CN(C(=O)CN(C(=O)CNCCCCN)[C@@H](C)c1ccccc1)[C@@H](C)c1ccccc1)[C@@H](C)c1ccccc1)[C@@H](C)c1ccccc1)[C@@H](C)c1ccccc1)[C@@H](C)c1ccccc1)[C@@H](C)c1ccccc1 [compound 1, H-(NLys-Nspe-Nspe)4-NH2] (H-[Nlys][Nspe][Nspe][Nlys][Nspe][Nspe][Nlys][Nspe][Nspe][Nlys][Nspe][Nspe]-NH2)	4 to 8	–
C[C@@H](c1ccccc1)N(CC(N)=O)C(=O)CN(C(=O)CN(CCCCN)C(=O)CN(C(=O)CN(C(=O)CN(CCCCN)C(=O)[C@@H]1CCCN1C(=O)CN(C(=O)CN(CCCCN)C(=O)CN(C(=O)CN(C(=O)CNCCCCN)[C@@H](C)c1ccccc1)[C@@H](C)c1ccccc1)[C@@H](C)c1ccccc1)[C@@H](C)c1ccccc1)[C@@H](C)c1ccccc1)[C@@H](C)c1ccccc1 [1-Pro6, H-Nlys-Nspe-Nspe-Nlys-Nspe-L-Pro-(Nlys-Nspe-Nspe)2-NH2] (H-[Nlys][Nspe][Nspe][Nlys][Nspe]P[Nlys][Nspe][Nspe][Nlys][Nspe][Nspe]-NH2)	–	10
